Here are results for 1 compound from PMC8003295, “The In Vitro Interaction of 12-Oxophytodienoic Acid and Related Conjugated Carbonyl Compounds with Thiol Antioxidants” (Biomolecules, 2021).

What is called Kd is the concentration at which binding is half-saturated. Read a low Kd as higher affinity.

The target in assay [1] is T1, Cyp20-3 (Arabidopsis thaliana, UniProt P34791).
T1 construct: recombinant Cyp20-3 WT, His6-tag not cleaved
Briefly: ITC (single-site fit, poor fit noted); intrinsic fluorescence quenching; PPIase activity. Format: binding.

Assay [2] deals with T2, Cyp20-3 (Arabidopsis thaliana, UniProt P34791, C206S).
T2 construct: recombinant Cyp20-3 C129S variant, His6-tag not cleaved
The assay can be described thus: PPIase activity assay (chymotrypsin-coupled), […] 12-OPDA. It counts as biochemical.

For assay [3], the target named is T3, Cyp20-3 (Arabidopsis thaliana, UniProt P34791, C248S).
T3 construct: recombinant Cyp20-3 C171S variant, His6-tag not cleaved
The assay can be described thus: ITC (single-site fit, poor fit noted). Format: binding.

T1 sequence (P34791 78-260): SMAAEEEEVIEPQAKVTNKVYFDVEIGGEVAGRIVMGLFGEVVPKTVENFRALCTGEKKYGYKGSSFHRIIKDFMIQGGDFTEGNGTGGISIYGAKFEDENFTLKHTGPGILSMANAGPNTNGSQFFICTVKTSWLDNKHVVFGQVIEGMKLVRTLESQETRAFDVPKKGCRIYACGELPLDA
T3 sequence (P34791 78-260 C248S): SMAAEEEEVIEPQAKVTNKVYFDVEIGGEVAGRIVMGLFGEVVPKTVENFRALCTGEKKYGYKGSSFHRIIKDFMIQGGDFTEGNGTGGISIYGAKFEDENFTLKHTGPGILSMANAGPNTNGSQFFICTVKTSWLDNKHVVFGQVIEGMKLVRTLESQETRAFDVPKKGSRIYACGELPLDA
T2 sequence (P34791 78-260 C206S): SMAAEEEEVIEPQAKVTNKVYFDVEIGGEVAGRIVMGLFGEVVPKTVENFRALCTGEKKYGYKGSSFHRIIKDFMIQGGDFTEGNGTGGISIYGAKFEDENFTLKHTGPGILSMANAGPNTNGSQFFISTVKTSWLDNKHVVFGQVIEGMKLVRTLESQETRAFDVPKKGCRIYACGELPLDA

Regarding `CC/C=C\C[C@@H]1C(=O)C=C[C@@H]1CCCCCCCC(=O)O` [12-OPDA, 12-oxophytodienoic acid], the Kd at Cyp20-3 [1] worked out at 35.7 ± 9 µM; at Cyp20-3 [3], 26 ± 8 µM. In addition, the “PPIase activity assay (chymotrypsin-coupled), 26 μM 12-OPDA” value at Cyp20-3 [2] is 12-OPDA stimulated the activity of oxidized Cyp20-3 WT and C129S to a similar extent.
